US9169255B2, “Caffeinated compounds and compositions for treatment of amyloid diseases and synucleinopathies” (ProteoTech Inc, priority 2011, dated 2015)

Legend:
Type in all cases: biochemical
α-synuclein fibrils = biological target: T1, α-synuclein fibrils (Homo sapiens, UniProt P37840); experiment: Congo red binding assay, pre-formed α-synuclein fibrils; conditions: 2-day incubation
T1 construct: purchased rPeptide, Bogart, Calif
Method: In this set of studies, the efficacy of certain compounds provided herein to cause a disassembly/disruption/disaggregation of pre-formed fibrils of Parkinson's disease (i.e. consisting of α-synuclein fibrils) was analyzed. For the studies described below in Parts A and B, 69 μM of α-synuclein (rPeptide, Bogart, Calif.) was first incubated at 37° C. for 4 days in 20 mM sodium acetate buffer at pH 4 with circular shaking (1,300 rpm) to cause α-synuclein aggregation and fibril formation.
In the Congo red binding assay, the ability of a given test compound to alter α-synuclein aggregate binding to Congo red is quantified. In this assay Congo red binds specifically to fibrillar protein, and this binding is directly proportional to the amount of fibrils formed. Following initial α-synuclein fibrilization as described above, α-synuclein aggregates and test compounds were incubated for 2 days and then vacuum filtered through a 0.2 μm filter. The amount of α-synuclein retained in the filter was then quantitated following staining of the filter with Congo red. After appropriate washing of the filter, any lowering of the Congo red color on the filter in the presence of the test compound (compared to the Congo red staining of the protein in the absence of the test compound—i.e. α-synuclein alone) was indicative of the test compound's ability to diminish/alter the amount of aggregated and congophilic α-synuclein and thus cause disassembly/disruption/disaggregation of α-synuclein fibrils.
In one study, the ability of α-synuclein fibrils to bind Congo red following a 2-day incubation of α-synuclein in the absence or presence of increasing amounts of the compounds provided herein, including positive reference (control) compounds (at test compound:α-synuclein molar ratios of 10:1, 1:1, 0.1:1, 0.01:1) was determined. The results of this study indicate that compounds of this invention disrupt/disaggregate/disassemble pre-formed α-synuclein aggregates as indicated by their ability to inhibit Parkinson's disease type α-synuclein fibril binding to Congo red.

wild-type α-synuclein = wild-type α-synuclein (Homo sapiens, UniProt P37840); experiment: Thioflavin T fluorometry, inhibition of formation of α-synuclein β-sheet from fresh α-synuclein
Method: To test whether the compounds can inhibit formation of α-synuclein β-sheet, the same assay as described in Example 2, was utilized but the α-synuclein was fresh and not pre-fibrillized. Fresh wild-type α-synuclein was dissolved in a buffer containing 9.5 mM phosphate, 137 mM sodium chloride and 2.7 mM potassium chloride (phosphate-buffered saline; PBS), and the pH was adjusted to pH 7.4. This solution was then lyophilized and dissolved in 1.0 ml deionized water at 0.5 mg/ml (35 μM). As indicated above the test compounds (typically at test compound:α-synuclein molar ratios of 10:1, 1:1, 0.1:1, and 0.01:1) were then added to the α-synuclein. Following 24-38 hours of co-incubation, the incubation mixtures were diluted 1:10 and 50 μl of each diluted incubation mixture was transferred into a 96-well microtiter plate containing 150 μl of distilled water and 50 μl of a Thioflavin T solution (i.e. 500 μM Thioflavin T in 250 mM phosphate buffer, pH 6.8). The final concentration of α-synuclein was 0.7 μM and the concentration of Thioflavin T reagent was 100 μM in 50 mM phosphate buffer, pH 6.8. In some experiments, 200 μl of each diluted incubation mixture was combined in the 96-well microtiter plate with 50 μl of the 500 μM Thioflavin T solution to give 2.8 μM α-synuclein in the presence of 100 μM Thioflavin T reagent. The fluorescence was read at 485 nm (444 nm excitation wavelength) using an ELISA plate fluorometer after subtraction with buffer alone or compound alone, as blank. Positive control compound 1 performed nearly identically in inhibiting α-synuclein aggregation regardless of whether 0.7 μM or 2.8 μM α-synuclein was subsequently used in the Thioflavin T reaction.

Aβ 1-42 fibrils [1] = biological target: T2, Aβ 1-42 fibrils (Homo sapiens, UniProt P05067); experiment: Thioflavin T fluorometry, disruption of pre-fibrillized Aβ 1-42; conditions: for Thioflavin T fluorometry % Inhibition: 2-day incubation; for effect against Aβ fibrils/aggregates at substoichiometric concentrations: test compound:Aβ molar ratios of 0.1:1 and 0.05:1
T2 construct: pre-fibrillized human Aβ 1-42 (rPeptide); purchased rPeptide
Excerpt: In this assay Thioflavin T binds specifically to fibrillar amyloid, and this binding produces a fluorescence enhancement at 485 nm that is directly proportional to the amount of amyloid fibrils formed. The higher the fluorescence, the greater the amount of amyloid fibrils formed (Naki et al., Lab. Invest. 65:104-110, 1991; Levine III, Protein Sci. 2:404-410, 1993; Amyloid: Int. J. Exp. Clin. […] The emission fluorescence was read at 485 nm (444 nm excitation wavelength) using an ELISA plate fluorometer after subtraction with buffer alone or compound alone, as blank.

Aβ 1-42 fibrils [2] = biological target: T2, Aβ 1-42 fibrils; experiment: Congo red binding assay, Aβ 1-42 fibrils; conditions: for Congo Red Binding % Inhibition: 2-day incubation
Method: In the Congo red binding assay the ability of a test compound to alter β-amyloid binding to Congo red is quantified. In this assay, Aβ 1-42 (as prepared for the Thio T assay) and test compounds were incubated for 2 days and then vacuum filtered through a 0.2 μm filter. The amount of Aβ 1-42 retained in the filter was then quantitated following staining of the filter with Congo red. After appropriate washing of the filter, any lowering of the Congo red color on the filter in the presence of the test compound (compared to the Congo red staining of the amyloid protein in the absence of the test compound) was indicative of the test compound's ability to diminish/alter the amount of aggregated and congophilic Aβ.

[3] = compound:peptide molar ratio 0.01:1
[4] = compound:peptide molar ratio 0.1:1
[5] = compound:peptide molar ratio 1:1
[6] = compound:peptide molar ratio 10:1
[7] = compound:peptide molar ratio 0.05:1
[8] = compound:peptide molar ratio 5:1

T2 sequence (P05067 672-713 limits assumed): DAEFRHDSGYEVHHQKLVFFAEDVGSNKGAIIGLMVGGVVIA

Compound	Congo Red Binding- % Inhibition (α-synuclein fibrils; [3])	Congo Red Binding- % Inhibition (α-synuclein fibrils; [4])	Congo Red Binding- % Inhibition (α-synuclein fibrils; [5])	Congo Red Binding- % Inhibition (α-synuclein fibrils; [6])	ThioT Assay % Inhibition (wild-type α-synuclein; [3])	ThioT Assay % Inhibition (wild-type α-synuclein; [4])	ThioT Assay % Inhibition (wild-type α-synuclein; [5])	ThioT Assay % Inhibition (wild-type α-synuclein; [6])	Thioflavin T fluorometry % Inhibition (Aβ 1-42 fibrils [1]; [7])	Thioflavin T fluorometry % Inhibition (Aβ 1-42 fibrils [1]; [4])	Thioflavin T fluorometry % Inhibition (Aβ 1-42 fibrils [1]; [5])	Thioflavin T fluorometry % Inhibition (Aβ 1-42 fibrils [1]; [8])	Thioflavin T fluorometry % Inhibition (Aβ 1-42 fibrils [1]; [6])	effect against Aβ fibrils/aggregates at substoichiometric concentrations (Aβ 1-42 fibrils [1])	Congo Red Binding % Inhibition (Aβ 1-42 fibrils [2]; [4])	Congo Red Binding % Inhibition (Aβ 1-42 fibrils [2]; [5])	Congo Red Binding % Inhibition (Aβ 1-42 fibrils [2]; [8])	Congo Red Binding % Inhibition (Aβ 1-42 fibrils [2]; [6])	inhibition of Aβ 1-42 fibrils (Thioflavin T fluorometry) (Aβ 1-42 fibrils [1]; all concentrations tested)	inhibition of Aβ 1-42 fibril binding to Congo red (Aβ 1-42 fibrils [2]; all concentrations tested)
1,3-dimethyl-7-(3′,4′-dibenzyloxy)benzyl-8-(3′,4′-dihydroxyphenyl)xanthine [PD-154]	3%	0%	12%	0%	8%	44%	89%	89%	43%	36%	60%	74%	80%	effective	0%	0%	0%	0%	–	–
Cn1c(=O)c2c(ncn2C)n(C)c1=O [Caffeine, reference compound]	–	–	–	0%	0%	0%	0%	0%	–	–	0%	0%	8%	–	–	0%	0%	1%	no significant inhibition	no significant inhibition
Cn1cnc2c1c(=O)n(Cc1ccc(O)c(O)c1)c(=O)n2Cc1ccc(O)c(O)c1 [PD-150, 7-Methyl-1,3-bis(3′,4′-dihydroxy)benzylxanthine]	–	–	–	35%	0%	0%	22%	91%	41%	35%	67%	87%	94%	effective	10%	18%	46%	60%	–	–
Cn1c(=O)n(Cc2ccc(O)c(O)c2)c(=O)c2c1ncn2Cc1ccc(O)c(O)c1 [PD-151, 3-Methyl-1,7-bis(3′,4′-dihydroxybenzyl)xanthine]	3%	1%	6%	22%	0%	0%	0%	78%	18%	20%	56%	87%	94%	–	13%	12%	47%	63%	–	–
Cn1c(=O)c2c(ncn2Cc2ccc(O)c(O)c2)n(Cc2ccc(O)c(O)c2)c1=O [PD-152]	0%	6%	19%	22%	0%	0%	0%	72%	12%	13%	54%	87%	91%	–	4%	21%	48%	59%	–	–
Cn1c(=O)c2c(nc(-c3ccc(O)c(O)c3)n2C)n(C)c1=O [PD-153, 1,3,7-trimethyl-8-(3′,4′-dihydroxyoxyphenyl)xanthine]	1%	2%	6%	18%	13%	23%	0%	80%	5%	0%	6%	17%	63%	–	7%	20%	19%	20%	–	–
